According to ChEMBL document CHEMBL1201862, “PubChem BioAssay data set” (2004):
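In this assay, cells in 96-well plates receive the compound at five concentrations for 48 hours. Endpoints are linearly interpolated between the surrounding concentrations. GI50 is the concentration that inhibits growth by half.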 Calls of active or inactive are those of the source. Rule as the data show it: active = GI50 up to about 1.1 µM and inactive = higher.

How the values were obtained:
Assay in all cases: NCI anticancer screen, dose series, 48 h
A498 = tested on: A498
HCT-15 = tested on: HCT-15
HOP-62 = tested on: HOP-62
K562 = tested on: K562
KM12 = tested on: KM12
LOX IMVI = tested on: LOX IMVI
MDA-N = tested on: MDA-N
Malme-3M = tested on: Malme-3M
NCI-H522 = tested on: NCI-H522
NCI/ADR-RES = tested on: NCI/ADR-RES
OVCAR-3 = tested on: OVCAR-3
OVCAR-4 = tested on: OVCAR-4
SF-295 = tested on: SF-295
SNB-19 = tested on: SNB-19
SNB-75 = tested on: SNB-75
U-251 = tested on: U-251
UO-31 = tested on: UO-31
SF-539 = tested on: SF-539

Structure (SMILES) | GI50 (A498) | GI50 (HCT-15) [µM] | GI50 (HOP-62) | GI50 (K562) | GI50 (KM12) | GI50 (LOX IMVI) | GI50 (MDA-N) | GI50 (Malme-3M) | GI50 (NCI-H522) | GI50 (NCI/ADR-RES) | GI50 (OVCAR-3) | GI50 (OVCAR-4) | GI50 (SF-295) | GI50 (SNB-19) | GI50 (SNB-75) | GI50 (U-251) | GI50 (UO-31) | GI50 (SF-539)
CCC(=O)Nc1ncnc2ncn(C(=O)CC)c12 | > 100 µM (inactive) | > 100 | > 100 µM (inactive) | > 100 µM (inactive) | > 100 µM (inactive) | > 100 µM (inactive) | > 100 µM (inactive) | > 100 µM (inactive) | > 100 µM (inactive) | > 100 µM (inactive) | > 100 µM (inactive) | > 100 µM (inactive) | > 100 µM (inactive) | > 100 µM (inactive) | > 100 µM (inactive) | > 100 µM (inactive) | > 100 µM (inactive) | –
COCCCN(Cc1cc(OC)c(OC)c(OC)c1)C(=S)Nc1cccc(Cl)c1 | 28.3 µM (inactive) | 16.7 | 42.6 µM (inactive) | 15.7 µM (inactive) | 23.1 µM (inactive) | 21.5 µM (inactive) | 19.2 µM (inactive) | – | – | 21.1 µM (inactive) | 41.6 µM (inactive) | 24.4 µM (inactive) | 31.8 µM (inactive) | 43.7 µM (inactive) | 25.3 µM (inactive) | 31.8 µM (inactive) | 26.1 µM (inactive) | 42.8 µM (inactive)
CC(C)CCNC(=O)c1ccc(CNC(=O)/C=C/c2ccc3ccccc3c2)cc1 | > 100 µM (inactive) | > 100 | > 100 µM (inactive) | > 100 µM (inactive) | > 100 µM (inactive) | > 100 µM (inactive) | > 100 µM (inactive) | – | – | > 100 µM (inactive) | > 100 µM (inactive) | 59.3 µM (inactive) | > 100 µM (inactive) | > 100 µM (inactive) | > 100 µM (inactive) | 36 µM (inactive) | 44.1 µM (inactive) | –
O=C(CC(C(=O)c1ccsc1)c1ccccc1)c1cccs1 (stereo not drawn) | 77.6 µM (inactive) | 56.9 | > 100 µM (inactive) | > 100 µM (inactive) | 26.8 µM (inactive) | – | 69.2 µM (inactive) | – | 41.6 µM (inactive) | 22.5 µM (inactive) | 96.8 µM (inactive) | 55 µM (inactive) | 33.3 µM (inactive) | – | 72.6 µM (inactive) | 62.2 µM (inactive) | 19.6 µM (inactive) | > 100 µM (inactive)
COc1ccccc1-c1nc[nH]c1-c1ccccc1OC | 27.7 µM (inactive) | 35 | 40.8 µM (inactive) | 19.9 µM (inactive) | 2.45 µM (inactive) | 16.8 µM (inactive) | 16.1 µM (inactive) | 11.2 µM (inactive) | 13.2 µM (inactive) | 22 µM (inactive) | 24.2 µM (inactive) | 25.8 µM (inactive) | 26 µM (inactive) | 35.2 µM (inactive) | 14.6 µM (inactive) | – | 45.1 µM (inactive) | –
C=CCC(CNC(=O)OCc1ccccc1)O[Si](C)(C)C(C)(C)C (stereo not drawn) | 38.8 µM (inactive) | 35.9 | 38.5 µM (inactive) | 23.6 µM (inactive) | 34 µM (inactive) | 23.4 µM (inactive) | 34.8 µM (inactive) | – | 24.9 µM (inactive) | 36.9 µM (inactive) | 31.6 µM (inactive) | 46.7 µM (inactive) | 35.2 µM (inactive) | 40.3 µM (inactive) | 59.3 µM (inactive) | 25.6 µM (inactive) | 22.2 µM (inactive) | 28.5 µM (inactive)
Cn1cnc(N2CCCC2)c(C#N)c1=O | > 100 µM (inactive) | > 100 | > 100 µM (inactive) | > 100 µM (inactive) | > 100 µM (inactive) | > 100 µM (inactive) | > 100 µM (inactive) | > 100 µM (inactive) | > 100 µM (inactive) | > 100 µM (inactive) | > 100 µM (inactive) | > 100 µM (inactive) | > 100 µM (inactive) | > 100 µM (inactive) | – | > 100 µM (inactive) | > 100 µM (inactive) | > 100 µM (inactive)
CCOC(=O)N1CCN(c2c(C)nc(C)nc2O)CC1 | > 100 µM (inactive) | > 100 | > 100 µM (inactive) | > 100 µM (inactive) | > 100 µM (inactive) | > 100 µM (inactive) | > 100 µM (inactive) | > 100 µM (inactive) | > 100 µM (inactive) | > 100 µM (inactive) | > 100 µM (inactive) | > 100 µM (inactive) | > 100 µM (inactive) | > 100 µM (inactive) | – | > 100 µM (inactive) | > 100 µM (inactive) | > 100 µM (inactive)
CC[C@H](C)C1=C(OC(C)=O)[N@+]2([O-])Oc3ccc(-c4c(O)c(O)c(-c5ccc(OC(C)=O)cc5)c(OC(C)=O)c4OC(C)=O)cc3O[C@]2([C@@H](C)CC)C(=O)N1O | 7.85 µM (inactive) | 19.2 | 24.6 µM (inactive) | 11.7 µM (inactive) | 20.6 µM (inactive) | 17.5 µM (inactive) | 23.2 µM (inactive) | 16.6 µM (inactive) | 10.6 µM (inactive) | 18.5 µM (inactive) | 15 µM (inactive) | 11.1 µM (inactive) | 22.8 µM (inactive) | 32.1 µM (inactive) | – | 24.3 µM (inactive) | 35 µM (inactive) | 14.2 µM (inactive)
CN(C)C(=S)N/N=C\C(=N/NC(=S)N(C)C)c1ccccc1 | 7.21 µM (inactive) | 2.71 | 6.05 µM (inactive) | 4.68 µM (inactive) | 15 µM (inactive) | 9.02 µM (inactive) | > 61.8 µM (inactive) | – | 3.15 µM (inactive) | 2.98 µM (inactive) | 2.7 µM (inactive) | 5.74 µM (inactive) | 4.93 µM (inactive) | 17 µM (inactive) | 13.4 µM (inactive) | 3.96 µM (inactive) | 3.69 µM (inactive) | 10.1 µM (inactive)
Cc1cccc(C)c1NC(=O)C(=O)CC(=O)c1sc(Nc2c(C)cccc2C)nc1C | 86.7 µM (inactive) | > 100 | > 100 µM (inactive) | > 100 µM (inactive) | > 100 µM (inactive) | > 100 µM (inactive) | > 100 µM (inactive) | – | > 100 µM (inactive) | > 100 µM (inactive) | > 100 µM (inactive) | > 100 µM (inactive) | > 100 µM (inactive) | > 100 µM (inactive) | 22.7 µM (inactive) | > 100 µM (inactive) | 50.8 µM (inactive) | > 100 µM (inactive)
O=C(O)C1OC1C(=O)O (stereo not drawn) | > 100 µM (inactive) | > 100 | > 100 µM (inactive) | > 100 µM (inactive) | > 100 µM (inactive) | > 100 µM (inactive) | > 100 µM (inactive) | > 100 µM (inactive) | > 100 µM (inactive) | > 100 µM (inactive) | > 100 µM (inactive) | > 100 µM (inactive) | > 100 µM (inactive) | > 100 µM (inactive) | > 100 µM (inactive) | > 100 µM (inactive) | > 100 µM (inactive) | –
